In article PMC12652692, “Synthesis and In Vitro Anticancer Evaluation of Novel Phosphonium Derivatives of Chrysin” (International Journal of Molecular Sciences, 2025):

Columns and labels:
Assay in all cases: NCI60 one-dose screen
Assay type in all cases: cell-based
CCRF-CEM = settings: Homo sapiens, read-out: Growth percent
Protocol: (§1) The screening results are presented in the Supplementary Materials (Table S1), where the cytotoxicity was determined for the 10 µM concentration. […] The negative numbers indicate significant decreases in the cell number. […] Compared to the reference chrysin (2), all phosphonium hybrids (3a–h) had significant antiproliferative activities. […] At the same time, it should be noted that more than 60% average reduction was also obtained in the case of the other examined conjugates (3a–h).
(§2) A detailed description of the NCI screening procedures, including the one-dose and five-dose tests, can be found in the Supplementary Materials, on the website of NCI [39], and in our previous work.
(§3) A detailed description of the NCI screening procedures can also be found on the website of NCI [39], and in our […]
(§4) All candidates were examined at first at a single high dose (10 μM) in the full NCI60 cell panel. The value reported for the one-dose test is growth relative to the no-drug control and relative to the time zero number of cells. This made possible the disclosure of both growth inhibition (numbers between 0 and 100) and lethality (numbers less than 0). For example, a value of 100 means no growth inhibition. A value of 20 would mean 80% growth inhibition. A value of 0 means no net growth over the course of the analysis. A value of −20 would mean 20% lethality. A value of −100 means all cells are dead. […]
(§5) concentration levels. The human tumor cell lines of the cancer screening panel were grown in RPMI 1640 medium containing 5% fetal bovine serum and 2 mM l-glutamine. Characteristically, cells were injected in 96-well microtiter plates in 0.1 mL at plating densities ranging from 5000 to 40,000 cells/well, depending on the doubling time of individual cell lines. After cell inoculation, the microtiter plates were incubated at 37 °C, 5% carbon dioxide, 95% air, and 100% relative humidity for 24 hours before the addition of tested compounds. After 24 hours, 2 plates of each cell line were fixed in situ with Cl3COOH (TCA), to represent a measurement of the cell population for each cell line at the time of drug addition (tz). Tested compounds were solubilized in DMSO at 400-fold the desired final maximum test concentration and stored frozen before application. In the course of the drug addition, an aliquot of frozen concentrate was thawed and diluted to twice the desired final maximum test concentration with a complete medium containing 50 μg mL−1 gentamicin. Additional four, 10-fold or ½ log serial dilutions were produced to furnish a total of five drug concentrations plus control. Aliquots of 0.1 mL of these different drug dilutions were added to the appropriate microtiter wells already containing 0.1 mL of medium, resulting in the required final drug concentrations.
(§6) Following drug addition, the plates were incubated at 37 °C, 5% carbon dioxide, 95% air, and 100% relative humidity for an additional 48 hours. For adherent cells, the test was finished by the addition of cold Cl3COOH. Cells were fixed in situ by the addition of 50 μL of cold 50% (w/v) Cl3COOH, and incubated at 4 °C for 1 hour. The supernatant was discarded, and the plates were washed with H2O (5×) and dried in air. Sulforhodamine B (SRB) solution (0.1 mL) at 0.4% (w/v) in 1% CH3COOH was added to each well, and plates were incubated at RT for 10 min. After staining, the unbound dye was removed by washing five times with 1% CH3COOH, and the plates were dried in the air. The bound stain is afterward solubilized with a 10 mM trizma base, and the absorbance is read on an automated plate reader at λ = 515 nm. Utilizing the seven absorbance measurements [time zero (tz), control growth (c), and test growth in the presence of the drug at the five concentration levels (ti)], the percentage growth was determined at each of the drug concentration levels. Growth inhibition (%) was calculated as:
(§7) [(ti − tz)/(c − tz)] × 100, for concentrations where ti ≥ tz (1) […]

COLO 205 = settings: Homo sapiens; COLO 205, 10 μM; read-out: Growth percent
Protocol: as §1, §2, §3, §4, §5, §6, §7

EKVX = settings: Homo sapiens, read-out: Growth percent
Protocol: as §1, §2, §3, §4, §5, §6, §7

HCT-116 = settings: Homo sapiens; HCT-116, 10 μM; read-out: Growth percent
Protocol: as §1, §2, §3, §4, §5, §6, §7

HCT-15 = settings: Homo sapiens; HCT-15, 10 μM; read-out: Growth percent
Protocol: as §1, §2, §3, §4, §5, §6, §7

IGROV1 = settings: Homo sapiens, IGROV-1; IGROV1, 10 μM; read-out: Growth percent
Protocol: as §1, §2, §3, §4, §5, §6, §7

K-562 = settings: Homo sapiens, K562; K-562, 10 μM; read-out: Growth percent
Protocol: as §1, §2, §3, §4, §5, §6, §7

MALME-3M = settings: Homo sapiens, read-out: Growth percent
Protocol: as §1, §2, §3, §4, §5, §6, §7

MCF7 = settings: Homo sapiens; MCF7, 10 μM; read-out: Growth percent
Protocol: as §1, §2, §3, §4, §5, §6, §7

MDA-MB-435 = settings: Homo sapiens; MDA-MB-435, 10 μM; read-out: Growth percent
Protocol: as §1, §2, §3, §4, §5, §6, §7

MOLT-4 = settings: Homo sapiens; MOLT-4, 10 μM; read-out: Growth percent
Protocol: as §1, §2, §3, §4, §5, §6, §7

NCI-H226 = settings: Homo sapiens; NCI-H226, 10 μM; read-out: Growth percent
Protocol: as §1, §2, §3, §4, §5, §6, §7

NCI-H460 = settings: Homo sapiens; NCI-H460, 10 μM; read-out: Growth percent
Protocol: as §1, §2, §3, §4, §5, §6, §7

NCI-H522 = settings: Homo sapiens; NCI-H522, 10 μM; read-out: Growth percent
Protocol: as §1, §2, §3, §4, §5, §6, §7

OVCAR-3 = settings: Homo sapiens; OVCAR-3, 10 μM; read-out: Growth percent
Protocol: as §1, §2, §3, §4, §5, §6, §7

OVCAR-8 = settings: Homo sapiens; OVCAR-8, 10 μM; read-out: Growth percent
Protocol: as §1, §2, §3, §4, §5, §6, §7

RPMI-8226 = settings: Homo sapiens; RPMI-8226, 10 μM; read-out: Growth percent
Protocol: as §1, §2, §3, §4, §5, §6, §7

SF-295 = settings: Homo sapiens; SF-295, 10 μM; read-out: Growth percent
Protocol: as §1, §2, §3, §4, §5, §6, §7

SK-MEL-5 = settings: Homo sapiens; SK-MEL-5, 10 μM; read-out: Growth percent
Protocol: as §1, §2, §3, §4, §5, §6, §7

SNB-19 = settings: Homo sapiens; SNB-19, 10 μM; read-out: Growth percent
Protocol: as §1, §2, §3, §4, §5, §6, §7

SMILES | activity at 10 µM (CCRF-CEM) [%] | activity at 10 µM (COLO 205) [%] | activity at 10 µM (EKVX) [%] | activity at 10 µM (HCT-116) [%] | activity at 10 µM (HCT-15) [%] | activity at 10 µM (IGROV1) [%] | activity at 10 µM (K-562) [%] | activity at 10 µM (MALME-3M) [%] | activity at 10 µM (MCF7) [%] | activity at 10 µM (MDA-MB-435) [%] | activity at 10 µM (MOLT-4) [%] | activity at 10 µM (NCI-H226) [%] | activity at 10 µM (NCI-H460) [%] | activity at 10 µM (NCI-H522) [%] | activity at 10 µM (OVCAR-3) [%] | activity at 10 µM (OVCAR-8) [%] | activity at 10 µM (RPMI-8226) [%] | activity at 10 µM (SF-295) [%] | activity at 10 µM (SK-MEL-5) [%] | activity at 10 µM (SNB-19) [%]
O=c1cc(-c2ccccc2)oc2cc(OCCCC[P+](c3ccccc3)(c3ccccc3)c3ccccc3)cc(O)c12 [3a] | -75.9 | -56.3 | -97.6 | -58.1 | -94.2 | -75.7 | -24.1 | -88 | -79.1 | -67.5 | -41.7 | -29 | -75.8 | -81.9 | -94 | -61.1 | -66.7 | -96 | -98.4 | -44.5
Cc1ccc([P+](CCCCOc2cc(O)c3c(=O)cc(-c4ccccc4)oc3c2)(c2ccc(C)cc2)c2ccc(C)cc2)cc1 [3b] | -70.5 | -64.5 | -88.3 | 1.29 | -88 | -46.9 | -4.21 | -57.9 | -74.8 | -88.2 | -43.4 | -50.2 | -47.8 | -74.4 | -88.2 | -30.1 | -55.8 | -91.3 | -96.5 | -96.1
COc1ccc([P+](CCCCOc2cc(O)c3c(=O)cc(-c4ccccc4)oc3c2)(c2ccc(OC)cc2)c2ccc(OC)cc2)cc1 [3c] | -71.7 | -68.3 | -70.9 | -95.5 | -64.2 | -6.99 | -39.8 | -45 | -56.8 | -89.6 | -51.6 | -67.6 | 2.18 | -84.9 | -68.1 | -90.6 | -67.5 | -73.8 | -93.9 | -78.9
O=c1cc(-c2ccccc2)oc2cc(OCCCC[P+](c3ccc(F)cc3)(c3ccc(F)cc3)c3ccc(F)cc3)cc(O)c12 [3d] | -55.9 | -68.4 | -83.9 | -66.6 | -48.6 | -64 | -17.6 | -82.4 | -84.8 | -90.8 | -24.3 | -56.9 | -47.4 | -74.4 | -72 | -45.6 | -30.1 | -74 | -99.2 | -97.4
O=c1cc(-c2ccccc2)oc2cc(OCCCC[P+](C3CCCCC3)(C3CCCCC3)C3CCCCC3)cc(O)c12 [3e] | -66.7 | -70.2 | -83.5 | -62 | -88.8 | -59.4 | 3.17 | -76.9 | -77 | -93.6 | -60.6 | -56.7 | -66 | -88 | -81.9 | -86.4 | -62.6 | -87 | -100 | -87.6
COc1c(C)cc([P+](CCCCOc2cc(O)c3c(=O)cc(-c4ccccc4)oc3c2)(c2cc(C)c(OC)c(C)c2)c2cc(C)c(OC)c(C)c2)cc1C [3f] | -32.6 | -62.2 | -76.5 | -47.6 | -58.9 | -38 | 6.85 | -42.5 | -58 | -81.9 | -42.5 | -58.5 | -58.6 | -77.3 | -69.8 | -68.1 | -42.9 | -63.6 | -75.2 | -76.8
Cc1ccccc1[P+](CCCCOc1cc(O)c2c(=O)cc(-c3ccccc3)oc2c1)(c1ccccc1C)c1ccccc1C [3g] | -96.5 | -97 | -98.4 | -94.5 | -94.7 | -99.1 | -97.5 | -98.5 | -95.4 | -98.3 | -98.6 | -99.4 | -91.5 | -98.5 | -99.1 | -95.9 | -98.5 | -98.7 | -97.9 | -97.4
O=c1cc(-c2ccccc2)oc2cc(OCCCC[P+](c3ccccc3)(c3ccccc3)c3ccccn3)cc(O)c12 [3h] | -20.7 | -75.9 | -93.1 | -61.6 | -88 | -80.1 | -51.3 | -93.4 | -62.6 | -80.8 | 21.1 | -50.4 | -84.2 | -72.3 | -93.7 | -91.6 | -35.3 | -92.7 | -96.3 | -91.6
